According to PMC6944649, “Population Pharmacokinetics, Efficacy Exposure-response Analysis, and Model-based Meta-analysis of Fenebrutinib in Subjects with Rheumatoid Arthritis” (Pharmaceutical Research, 2020):

Legend:
[1] = Population pharmacokinetic (popPK) analysis of fenebrutinib plasma concentrations (Phase 1 GA29347, GP29832 and Phase 2 GA29350); assay type: in vivo, human
Experimental: Fenebrutinib plasma concentrations were determined by high performance liquid chromatography with tandem mass spectrometry (MS/MS) detection (Covance Laboratories Inc., USA). Calibration plots were linear throughout the range of 0.5 to 500 ng/mL (lower and upper limits of quantification, respectively) for fenebrutinib in human plasma. Relative standard deviation of precision was <7.8%, and the accuracy of the method was between 91.3% and 102.7%.
Fenebrutinib plasma concentrations from subjects providing all available PK data after tablet administration in the clinical studies were integrated into the popPK analysis. The model was characterized initially in healthy subjects ([22]) from the Phase 1 multiple ascending dose (MAD) (GA29347) and a Phase 1 relative bioavailability/food effect/drug-drug interaction (GP29832, ClinicalTrials.gov Identifier: NCT02699710) studies, and later updated to incorporate the Phase 2 data from the three fenebrutinib-treated arms in patients with RA.
The popPK model was developed by introducing features in the order of increasing complexity, beginning with very simple models (e.g. one-compartment with first-order elimination), and continuing until further improvement in model fit was not supported by the data.
Covariate analysis first investigated the effects of pre-defined demographic, laboratory, prognostic, and treatment covariates on all the model parameters by using univariate screening. If >10% of a covariate was missing, the covariate was not included in the popPK analysis. Otherwise, the value of missing covariate observations was imputed as the median of the remaining values from an appropriate sub-population. For example, the missing baseline body weight value was imputed as the gender-adjusted median body weight of the remaining subjects. For categorical covariates, the most frequently occurring value was imputed for subjects with missing values in each trial. Concomitant proton pump inhibitor (PPI) and food were categorized as time-varying covariates, whereas the other categorical covariates were considered as baseline (non-time-varying) covariates. Next, covariates selected from the univariate screening (p value <0.05) were included in the evaluation of a full model followed by backwards elimination (p value <0.01). Effects of continuous covariates were incorporated into the model using the power function and normalized using the median of the covariate. Effects of categorical covariates were parameterized as proportional effects in the model, in which the fractional change on a model parameter was estimated, and the typical category constituted the largest proportion in the analysis population.
The final model was determined on the basis of objective function value, physiological plausibility of model parameter estimates, numerical convergence success, parameter estimate precision (relative standard errors <50%), and visual predictive check (VPC) plots. Goodness-of-fit plots were produced to verify the general agreement of fitted values with observed data. Prediction-corrected visual predictive check (pcVPC) was performed by normalizing the observed and simulated dependent variable based on the typical population prediction for the median independent variable in the bin ([26]). The pcVPC was stratified to evaluate the covariate effects of interest, whenever applicable. […]
Model development was carried out using first order conditional estimation with interaction (FOCE-I) as implemented in NONMEM (version 7.3, ICON Development Solutions, Ellicott City, MD). Post-processing of NONMEM analysis results was carried out in R (version 3.2.2, R Development Core Team, 2008).

[2] = Phase 1 relative bioavailability/food effect/drug-drug interaction study (GP29832), non-compartmental analysis; assay type: in vivo, human; conditions: healthy volunteers
[3] = tested on: patients with rheumatoid arthritis; assay: Exposure-response (E-R) analysis of longitudinal ACR20, ACR50, ACR70 in Phase 2 trial GA29350; assay type: in vivo, human
Text: (§1) GA29350 (ANDES, ClinicalTrials.gov Identifier: NCT02833350) was a multicenter, Phase 2, randomized, double-blind, placebo-controlled, parallel-group, dose-ranging trial to evaluate the efficacy and safety of fenebrutinib in patients with moderate to severe active RA and an inadequate response to previous MTX therapy (cohort 1) or anti-TNF therapy (cohort 2) ([24],[25]).
(§2) In cohort 1, 480 patients were enrolled, and were randomly assigned to 1 of 5 parallel treatment arms (3 fenebrutinib arms, 1 placebo arm, and 1 adalimumab arm). In the fenebrutinib and placebo arms, subjects received 50 mg QD, 150 mg QD, or 200 mg BID fenebrutinib tablets or placebo tablets, together with subcutaneous (SC) placebo injections every other week for 12 weeks (n = 40 in the 50 mg arm, and n = 109 to 111 in each of the other 4 arms). In the active comparator arm, patients received adalimumab 40 mg SC every other week and placebo tablets for 12 weeks. In cohort 2 (n = 98 enrolled), patients received 200 mg fenebrutinib BID or placebo tablets for 12 weeks.
(§3) Treatment responses in RA clinical trials are commonly evaluated by the American College of Rheumatology improvement criteria for 20, 50, and 70% threshold values (ACR20, ACR50, and ACR70, respectively), which is a binary response variable, and by the Disease Activity Score with 28-joint counts (DAS28), which is a continuous variable ([27],[28]). Both types of endpoints can be measured repeatedly during the course of the treatment period. The proportion of patients achieving ACR50 responses and analysis of longitudinal DAS28 (CRP) (DAS based on 28 joints and C-reactive protein value) were evaluated as the primary, key secondary, and secondary endpoints in the Phase 2 trial, and therefore, were of primary interest among clinical efficacy endpoints modeled for fenebrutinib. The E-R analyses aimed to establish the relationship between patient-specific fenebrutinib exposure with clinical efficacy endpoints of interest. […]

[4] = tested on: patients with rheumatoid arthritis; assay: Exposure-response (E-R) analysis of longitudinal DAS28 (CRP) in Phase 2 trial GA29350; assay type: in vivo, human
Text: as §1, §2, §3

[5] = tested on: patients with rheumatoid arthritis; assay: Model-based meta-analysis (MBMA) of ACR20, ACR50, ACR70; assay type: in vivo, human
Experimental: An efficacy and safety meta-analysis database was constructed in July 2017 using publicly available data of randomized trials in RA, based on the guidelines in the Cochrane Handbook for Systematic reviews. For this, a systematic review of publicly available data from the PubMed, Cochrane Library, and Embase databases was conducted using the search term “rheumatoid arthritis”. Furthermore, an existing database that contained data published in or before 2012 ([30]) was augmented using an additional, systematic, and quality-controlled procedure to search for relevant published studies, extract their data, and add to the existing database yielding pertinent data published through 2017.
The summary data of the database were explored systematically to determine the amount of data available for each treatment, efficacy and safety endpoint across trials, distribution of mean patient characteristics, and to graphically view the time course of longitudinal endpoints, placebo effect, active treatment effect from each of the comparator treatments, and the effects of patient and trial characteristics. Response rates of ACR20, ACR50, and ACR70 in terms of the proportion of patients achieving specified thresholds were the most prevalent efficacy endpoints in the database, and therefore, were chosen as the variables for model development using MBMA. Because of the relatively few adverse events observed in the fenebrutinib Phase 2 trial in RA ([24]), MBMA for safety events, such as serious infections, was not conducted.
The model simultaneously fit ACR20, ACR50, and ACR70 longitudinal data, and a non-linear mixed effects (NLME) estimation method was carried out using R. This hierarchical regression model used maximum likelihood estimation, and multiple levels of heterogeneity were described as mixed effect variability terms accommodating between-trial and within-trial variability. […]
The adequacy of model fits across trials was evaluated by visually inspecting time course plots of observed distributions vs. predicted values. […]

[6] = design: method as in PMID 29484638; conditions: Phase 1, cited from earlier work
BTK = tested on: BTK; design: method as in PMID 29484638; conditions: healthy volunteers, Phase 1; cited from earlier work

C[C@H]1CN(C2COC2)CCN1c1ccc(Nc2cc(-c3ccnc(N4CCn5c(cc6c5CC(C)(C)C6)C4=O)c3CO)cn(C)c2=O)nc1 [fenebrutinib]
apparent clearance (CL/F) decrease with concomitant administration of PPI ([1]; concomitant PPI): 33.7% | CL/F: Apparent systemic clearance ([1]; final popPK model estimate θ1, oral, typical RA patient): 19.5 L/h | NTR: Number of transit compartments ([1]; final popPK model estimate θ7, transit compartment absorption model): 14.9 | MTT: Mean transit time ([1]; final popPK model estimate θ8): 0.849 h | Food effect on MTT ([1]; final popPK model estimate θ11, covariate effect): 1.43 | PPI effect on MTT ([1]; final popPK model estimate θ12, concomitant proton pump inhibitor): 0.835 | PPI and food effect on MTT ([1]; final popPK model estimate θ13): 2.26 | PPI effect on F1 ([1]; final popPK model estimate θ14, F1 relative extent of absorption): 0.657 | PPI and food effect on F1 ([1]; final popPK model estimate θ15): 0.693 | Food effect on NTR ([1]; final popPK model estimate θ16): 0.864 | Tablet effect on NTR ([1]; final popPK model estimate θ17, formulation effect): 0.049 | Vd/F ([1]; human, plasma, oral, final popPK model estimate θ2, read-out: V1/F: Apparent central volume of distribution): 381 L | ω^2CL/F ([1]; inter-individual variability ω1.1): 0.0732 | ω^2V1/F ([1]; inter-individual variability ω2.2): 0.100 | ω^2MTT ([1]; inter-individual variability ω8.8): 0.0861 | ω^2F1 ([1]; inter-individual variability ω9.9): 0.131 | ω^2IOV on F1 ([1]; inter-occasion variability ω10.1): 0.299 | higher apparent clearance in healthy subjects than patients with RA ([1]; two Phase 1 studies vs Phase 2 trial): 52% | PPI effect on Cmax [2]: PPI decreases the Cmax | food effect on concentration-time profile and Tmax [2]: food blunts the concentration-time profile and delays the Tmax | Max drug effect over time - Eastern Europe ([3]; ACR20/50/70 E-R model θ9, logit scale): 1.39 | Max drug effect over time - Latin America ([3]; ACR20/50/70 E-R model θ14): 2.06 | efficacy versus exposure (ACR responses and DAS28 (CRP)) ([3]; graphical exploration and model-based simulation, cohort 1 MTX-IR patients, exposure range of Phase 2 study): plateau of efficacy was achieved | Time of 50% drug effect ([4]; DAS28 (CRP) E-R model θ4): 47 days | Maximum drug effect over time (DAS28) ([4]; DAS28 (CRP) E-R model θ6): -0.964 | ω2Max drug effect ([4]; DAS28 (CRP) E-R model ω2.2, inter-individual variability): 0.283 | efficacy in terms of ACR20, ACR50, and ACR70 compared to the registrational doses of adalimumab and tofacitinib ([5]; MBMA simulation, 200 mg BID, TNF-IR patients, 12 weeks after initiation of treatment): comparable efficacy | ED50, dose at which 50% of efficacy ([5]; calculated from E-R EC50 and fixed in MBMA model): 525 mg/week | accumulation ([6]; following twice daily dosing): modest accumulation | increase of plasma exposures with dose ([6]; healthy subjects): approximately dose-proportionally | steady-state half-life ([6]; healthy subjects): 4.2 to 9.9 h | time of peak plasma concentrations after oral administration ([6]; healthy subjects): 1 to 3 h | inhibition of BTK (BTK): dose- and concentration-dependent inhibition

adalimumab [reference compound]
ACR20, ACR50, and ACR70 response rates in arm of the fenebrutinib Phase 2 trial versus historical data ([5]; adalimumab 40 mg SC every other week arm, MBMA): consistent with historical data
